Paper PMC10447463, “Data-mining unveils structure–property–activity correlation of viral infectivity enhancing self-assembling peptides” (Nature Communications, 2023)
Like-named read-outs stand apart in the source and are kept apart here.

Key:
[1] = Zeta-potential measurement; assay type: physicochemical
Outline: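 Zeta potentials of aggregated peptides come from electrophoretic mobility (Smoluchowski model) in 1 mM KCl after a 1 d RT incubation at 1 mg/mL in PBS, pH 7.4.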

[2] = Conversion rate (CR) assay with fluorescamine; assay type: physicochemical; parameters: key to CR: % = 100−100×filtrate/original fluorescence intensity; conditions: conversion rate, fluorescamine assay; for CR / %: Fig. S7 panel B
Outline: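 Fluorescamine labelling (20 min RT, λex 365/λem 470 nm) of 3 kDa-MWCO filtrate and unfiltered fibril samples, redissolved in DMSO, gave conversion rate as 100 minus the percentage filtrate/original intensity, in triplicate. Secondary structure was quantified by ATR FT-IR on lyophilized 1 mg/mL fibrils, 64 scans.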

[3] = zeta-potential of peptide, source data of Figure 2C
[4] = zeta-potential of the peptide assemblies, mean, Figure 3A source data
[5] = zeta potential of peptide assemblies

Substance | Zeta-Pot. [1] | Zeta-Potential / mV [1, 3] | Zeta-Potential / mV [1, 4] | CR / % [2] | CR [2] | Zeta-Pot. [1, 5]
QCKFKFQFNM | 15.7 | 16.1 mV | 15.7 mV | 98.9% | 98.94 | 
CKWKWQW |  | 16.02 mV | 14.7 mV |  |  | 14.7
SISISRRI | -17 | -9.316 mV | -17 mV | 24.2% | 24.22 | 
EFEFQF |  | -14.88 mV | -24.5 mV |  |  | -24.5
KIKIQINAWQ |  | 13.72 mV | 13.1 mV |  |  | 13.1
NMWQKIKQII | -0.213 | 2.325 mV | -0.21 mV |  |  | 
QCKFKFQFNMWQ | 21.07 | 16.85 mV | 21.07 mV | 98.9% | 98.91 | 
KFKFQF |  | -8.745 mV | -11.03 mV | 67.4% | 67.4 | -11.03
KIKIQI |  | -2.515 mV | -5.63 mV | 18.9% | 18.91 | -5.63
KAKQAANMWQ | -12.9 | -8.433 mV | -12.9 mV |  |  | 
CKFKFQFNMW |  | 17.67 mV | 18.4 mV |  |  | 18.4
QCKAKAQA | 0.674 | 0.4918 mV | 0.67 mV |  |  | 
QCKIKIQINMWQ | 11.73 | 11.38 mV | 11.73 mV | 93.7% | 93.68 | 
KYKYQY |  | -3.008 mV | -4.2 mV |  |  | -4.2
KIKIKIKIYYYY |  | 14.07 mV | 13.3 mV |  |  | 13.3
MKFKFQF | -3.133 | -0.4917 mV | -3.13 mV | 86.9% | 86.86 | 
KIKQIINMWQ | 15.37 | 16.2 mV | 15.37 mV | 90.1% | 90.09 | 
KNDKND | -15 | -11.85 mV | -15 mV |  |  | 
QCKIKIQI | 9.52 | 10.99 mV | 9.52 mV |  |  | 
KWKWQW |  | 3.331 mV | 7.55 mV |  |  | 7.55
CEIEIQI | -26.1 | -24.43 mV | -26.1 mV | 59% | 59 | 
CKFQC | -17.38 | -5.253 mV | -17.38 mV | 33.2% | 33.24 | 
HGEHGE | -12.6 | -8.73 mV | -12.6 mV |  |  | 
KIKIQINMWQ | 14.87 | 15.7 mV | 14.87 mV | 94.3% | 94.34 | 
MKFM | -16 | -9.2 mV | -16 mV |  |  | 
CKFC | -19.89 | -2.077 mV | -19.89 mV | 35.9% | 35.92 | 
TKTLTKTL | -25.1 | -13.63 mV | -25.1 mV |  |  | 
CKIKIQIII | 16.2 | 16.2 mV | 16.2 mV |  |  | 

Substance | Zeta-Pot. [1] | Zeta-Potential / mV [1, 3] | Zeta-Potential / mV [1, 4] | CR / % [2] | CR [2] | Zeta-Pot. [1, 5]
KIKIQINMW |  | 17.12 mV | 19.7 mV |  |  | 19.7
KIRGKFEKED | -12.7 | -7.197 mV | -12.7 mV |  |  | 
NMWQKIKIQI |  | 7.36 mV | 8.26 mV |  |  | 8.26
KIKIQINMWA |  | 16.43 mV | 14.7 mV |  |  | 14.7
HHHHEIEIEIEI |  | -6.272 mV | -6.91 mV |  |  | -6.91
CEFEFQF |  | -10.825 mV | -13.7 mV |  |  | -13.7
PPFHPPPFHP | -15.8 | -9.582 mV | -15.8 mV |  |  | 
KKFQKKFQ | -9.19 | -6.175 mV | -9.19 mV |  |  | 
NMWQKAKAQA | -5.56 | -4.582 mV | -5.56 mV |  |  | 
KIKIQINMAQ |  | 6.27 mV | 3.07 mV |  |  | 3.07
CKYKYQY |  | 3.282 mV | 1.49 mV |  |  | 1.49
KVKVKVQV | -3.41 | -0.6533 mV | -3.41 mV |  |  | 
KIKIQIN |  | 4.4 mV | 3.34 mV |  |  | 3.34
KFKQFFNMWQ | -3.43 | -2.615 mV | -3.43 mV |  |  | 
FKFDKFKFDK | -12.7 | -8.027 mV | -12.7 mV |  |  | 
QCKFKFQF | 12.2 | 13.3 mV | 12.2 mV |  |  | 
KVKGVGK | -12.8 | -7.825 mV | -12.8 mV |  |  | 
NMWQKFKFQF | 9.56 | 10.63 mV | 9.56 mV |  |  | 
QCKIKQIINM | 10.4 | 9.992 mV | 10.4 mV |  |  | 
KIKQIIN |  | -5.929 mV | -11.7 mV |  |  | -11.7
KYKGAIIGNIK | -9.14 | -5.205 mV | -9.14 mV |  |  | 
KIKIQIAMWQ |  | 13.33 mV | 11.3 mV |  |  | 11.3
FDPFDPFDP | -10.9 | -6.68 mV | -10.9 mV |  |  | 
QCKIKQII | 11 | 9.183 mV | 11 mV |  |  | 
NMWQKVGTPL | -9.62 | -5.334 mV | -9.62 mV |  |  | 
RPRGLLLGNLR | -8.15 | -5.002 mV | -8.15 mV |  |  | 
EIEIEIEI |  | -7.535 mV | -8.92 mV |  |  | -8.92
